From publication PMC7747594, “Protease-activated receptor-2 ligands reveal orthosteric and allosteric mechanisms of receptor inhibition” (Communications Biology, 2020)
Values joined by “and” are separate entries in the source; they are usually repeats but may differ in a detail not shown here. Equal entries are not always repeated. Values belong to the molecule of their own block, whether it stands above or below them. Ends that are not written are not given here. Peptide text beside a SMILES is read from it.

Key:
[1] = biological target: human PAR2 on Flp-In CHO-hPAR2 cells (human) (UniProt P55085); test: time-resolved fluorescence competition binding on cells (Eu-tagged ligand, DELFIA); CHO-hPAR2 cells in 384-well plates, blocked with 2% BSA; Eu-tagged-2f-LIGRLO(dtpa)-NH2 300 nM together with competitor for 15 min; washed; DELFIA Enhancement Solution
[2] = biological target: T1, beta-tryptase (uniprot P20231) (Homo sapiens, UniProt P20231); test: Tryptase enzyme activity assay; assay type: biochemical; settings: 10 µM, n=1
T1 construct: made in house; host or cells: Pichia pastoris
T1 sequence (P20231 31-275): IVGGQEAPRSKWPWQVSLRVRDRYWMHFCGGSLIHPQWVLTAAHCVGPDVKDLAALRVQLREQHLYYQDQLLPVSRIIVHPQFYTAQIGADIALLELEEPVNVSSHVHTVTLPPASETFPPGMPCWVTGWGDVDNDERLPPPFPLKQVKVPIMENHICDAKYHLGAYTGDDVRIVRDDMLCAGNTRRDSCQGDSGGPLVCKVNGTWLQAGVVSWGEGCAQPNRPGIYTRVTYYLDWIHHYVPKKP
Method: Tryptase Enzyme Activity Assay. The tryptase assay was carried out using beta-tryptase (uniprot P20231) produced in Pichia pastoris and using Tos-Gly-Pro-Lys-pNA as substrate (25 mM stock in ethanol) in 100 mM Tris pH 8.0, 100 mM NaCl, 10% glycerol, 0.5 mg mL-1 BSA, 0.1% DDM. Substrate (250 µM) was pre-incubated with test compound (10 µM) in assay buffer (200 ul) in clear bottom 96 well Greiner plates at room temperature. The re action was started by the addition of tryptase to a final concentration of 4.7 nM. Co nversion was recorded in a plate reader by monitoring the increase of absorption at λ = 405 nm over time. Activity was determined by linear fit of initial rate.

hPAR2 [3] = biological target: T2, hPAR2 (Homo sapiens, UniProt P55085); test: Ca^2+ flux assay, agonist mode, 1321N1-hPAR2 cells; assay type: cell-based; settings: for Ca2+ response (Fig 2c), individual replicate values: hPAR2
T2 sequence (P55085 26-397): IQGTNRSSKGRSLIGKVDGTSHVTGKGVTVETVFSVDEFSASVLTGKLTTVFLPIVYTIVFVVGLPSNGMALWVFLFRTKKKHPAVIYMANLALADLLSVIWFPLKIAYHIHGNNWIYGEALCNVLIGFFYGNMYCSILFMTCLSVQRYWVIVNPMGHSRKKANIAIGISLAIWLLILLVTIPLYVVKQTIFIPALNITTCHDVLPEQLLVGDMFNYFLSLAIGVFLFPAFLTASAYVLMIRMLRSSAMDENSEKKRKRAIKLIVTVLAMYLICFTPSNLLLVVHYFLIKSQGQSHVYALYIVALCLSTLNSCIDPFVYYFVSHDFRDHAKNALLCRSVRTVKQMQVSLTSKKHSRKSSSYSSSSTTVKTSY
Method: Cells were loaded with Fluo-8 NW calcium dye (AAT Bioquest) for 30 min at 37 °C before compounds in Hank’s balanced salt solution (HBSS, ThermoFisher Scientific) with 20 mM HEPES (ThermoFisher Scientific), 0.1% bovine serum albumin (BSA, Sigma) and 0.5% DMSO were added and simultaneously evaluated for changes in intracellular [Ca^2+] using FLIPR TETRA (Molecular Devices) to detect agonism. For each concentration, the difference between the maximum peak Ca^2+ response and baseline response is reported. […] Antagonism experiments were also carried out on 1321N1-PAR2[WT], 1321N1-PAR2[F154A], and 1321N1-PAR2[G157C] as described. Experiments with trypsin in 1321N1-hPAR2 cells were performed in the presence of 1 µM Vorapaxar (Chemtronica) to remove any interference of PAR1 activity. […] Antagonism experiments for CHO-hPAR2 and HT-29 cells were performed in 96-well plates at 30,000 cells/well. Cells were loaded with Fluo-3 AM calcium dye (Sigma-Aldrich) for 60 min at 37 °C in HBSS with 1% FBS, 0.2% pluronic acid, 20 mM HEPES and 2.5 mM probenecid prior to the addition of antagonist. The antagonist was pre-incubated for 60 min at 37 °C followed by the addition of bovine trypsin (30 nM) at EC80. Intracellular [Ca^2+] flux was measured using FLIPR TETRA (Molecular Devices) and the difference between the maximum peak Ca^2+ response and baseline response is reported.
Binding data were analysed using the One site – Fit Ki model in GraphPad Prism 8 (GraphPad Software) to determine binding affinity. Pharmacology in vitro potency data was analysed with a 4-parameter logistic fit using the equation y = Bottom + (Top − Bottom)/[…] where y is the response, x is the 10-logarithm of the drug concentration, Bottom is no response and Top is full response in GraphPad Prism 8 or Genedata Screener (Genedata). pEC50 and pIC50 data are presented as mean ± standard error of the mean (s.e.m.) derived from the number of independent experiments stated. Schild slope analysis was calculated using Graphpad Prism 8 Gaddum/Schild EC50 global fitting (shared model parameters between all data sets) competitive model. […] Schild slope quantifies the shifts in agonist response in the presence of antagonist, a Schild slope of 1 indicates the antagonist is competitive and extra-sum-of-squares F-test (p < 0.05) was used to compare the calculated Schild slope against a hypothetical Schild slope of 1. […] The relative activity was calculated using (EmaxEC50’)/(Emax’EC50) with the Hill slope help constant at 1. EC50’ and Emax’ denote the EC50 and Emax in the absence of allosteric modulator, while EC50 and Emax denote those measured in the presence of allosteric modulator. When the Hill slope = 1, the relative activity plot approaches an asymptote corresponding to the estimate of the γ value.

hPAR2 [4] = biological target: T2, hPAR2; test: IP1 assay, agonist mode, 1321N1-hPAR2 cells; assay type: cell-based
hPAR2 [5] = biological target: T2, hPAR2; test: β-arrestin-2 recruitment, agonist mode, U2OS-hPAR2 cells; assay type: cell-based
hPAR2 [6] = biological target: T2, hPAR2; test: pERK1/2 assay, agonist mode, U2OS-hPAR2 cells; assay type: cell-based
hPAR2 [7] = biological target: T2, hPAR2; test: Radiolabelled competition binding assay against [^3H]-GB110 on HEKexpi293F membranes; parameters: expressed in transfected cells
Method: The reaction was then filtered through 0.5% PEI-coated filter plates using a BiomekFX. The filter plate was then dried for 1 h at 50 °C. Scintillation fluid was added to each well, before reading the plate in a Microbeta reader.
Binding data were analysed using the One site – Fit Ki model in GraphPad Prism 8 (GraphPad Software) to determine binding affinity. Pharmacology in vitro potency data was analysed with a 4-parameter logistic fit using the equation y = Bottom + (Top − Bottom)/[…] where y is the response, x is the 10-logarithm of the drug concentration, Bottom is no response and Top is full response in GraphPad Prism 8 or Genedata Screener (Genedata). pEC50 and pIC50 data are presented as mean ± standard error of the mean (s.e.m.) derived from the number of independent experiments stated. Schild slope analysis was calculated using Graphpad Prism 8 Gaddum/Schild EC50 global fitting (shared model parameters between all data sets) competitive model. The most rigorous method for quantifying agonist-antagonist interactions is to globally fit the Gaddum/Shild model to all agonist dose–response curves. Schild slope quantifies the shifts in agonist response in the presence of antagonist, a Schild slope of 1 indicates the antagonist is competitive and extra-sum-of-squares F-test (p < 0.05) was used to compare the calculated Schild slope against a hypothetical Schild slope of 1. […] The relative activity was calculated using (EmaxEC50’)/(Emax’EC50) with the Hill slope help constant at 1. EC50’ and Emax’ denote the EC50 and Emax in the absence of allosteric modulator, while EC50 and Emax denote those measured in the presence of allosteric modulator. When the Hill slope = 1, the relative activity plot approaches an asymptote corresponding to the estimate of the γ value.

[8] = biological target: human protease-activated receptor-2 (PAR2) in membranes of HEKexpi293F cells (human, UniProt P55085 26-397); test: radioligand binding; competition against [3H]-GB110 (25 nM) on membranes (30 µg protein per well) of HEKexpi293F cells expressing human PAR2; 2 h at room temperature; filtration; One site - Fit Ki model; settings: one partner purified

Molecule: 2f-LIGRLO-NH2 (peptide)
pKA (equilibrium dissociation constant of the orthosteric ligand) [1]: 6.1 pKA

Molecule: CC[C@H](C)[C@H](NC(=O)[C@H](CC(C)C)NC(=O)[C@@H](N)CO)C(=O)NCC(=O)N[C@@H](CCCCN)C(=O)N[C@H](C(N)=O)C(C)C [SLIGKV-NH2, reference compound] (H-SLIGKV-NH2)
EC50 (hPAR2 [3]): 1260 nM
Ca2+ response (Fig 2c), individual replicate values (hPAR2 [3]; [compound],M -3.69897): 103.767 and 118.778 and 97.8658 and 87.8393
Ca2+ response (Fig 2c), individual replicate values (hPAR2 [3]; [compound],M -4.17609): 56.3274 and 105.715 and 98.496 and 100.501
Ca2+ response (Fig 2c), individual replicate values (hPAR2 [3]; [compound],M -4.65321): 93.626 and 84.0006 and 100.043 and 97.9804
Ca2+ response (Fig 2c), individual replicate values (hPAR2 [3]; [compound],M -5.13033): 68.0728 and 71.1667 and 73.1719 and 72.2553
Ca2+ response (Fig 2c), individual replicate values (hPAR2 [3]; [compound],M -5.60746): 41.6601 and 53.119 and 63.0309 and 60.338
Ca2+ response (Fig 2c), individual replicate values (hPAR2 [3]; [compound],M -6.08458): 28.1959 and 44.9832 and 36.0453 and 35.9307
Ca2+ response (Fig 2c), individual replicate values (hPAR2 [3]; [compound],M -6.5617): 11.2941 and 18.1695 and 18.1121 and 22.4665
Ca2+ response (Fig 2c), individual replicate values (hPAR2 [3]; [compound],M -7.03882): 4.705 and 12.8411 and -0.8522 and 3.559
Ca2+ response (Fig 2c), individual replicate values (hPAR2 [3]; [compound],M -7.51594): -1.139 and 5.679 and 1.6687 and -1.54
Ca2+ response (Fig 2c), individual replicate values (hPAR2 [3]; [compound],M -7.99306): -2.17 and 3.044 and 0.4082 and -4.863
EC50 (hPAR2 [4]): 25.1 µM
EC50 (hPAR2 [5]): 12.6 µM
agonist response (Fig 2f), individual replicate values (hPAR2 [5]; [compound],M -4.04576): 97.3808 and 92.2809 and 86.7862 and 73.31 and 95.9148 and 84.3134
agonist response (Fig 2f), individual replicate values (hPAR2 [5]; [compound],M -4.52288): 92.9579 and 90.0884 and 64.3276 and 56.5062 and 77.8703 and 74.4284
agonist response (Fig 2f), individual replicate values (hPAR2 [5]; [compound],M -5): 55.0604 and 54.5545 and 55.8646 and 38.6159 and 58.5041 and 56.712
agonist response (Fig 2f), individual replicate values (hPAR2 [5]; [compound],M -5.47712): 26.8191 and 21.9568 and 32.045 and 20.5609 and 38.941 and 38.2123
agonist response (Fig 2f), individual replicate values (hPAR2 [5]; [compound],M -5.95424): 3.59 and 16.887 and 24.5009 and 9.51 and 14.8748 and 18.3177
agonist response (Fig 2f), individual replicate values (hPAR2 [5]; [compound],M -6.43136): -3.351 and 12.8282 and 7.2581 and 5.779 and 4.6 and 10.8974
agonist response (Fig 2f), individual replicate values (hPAR2 [5]; [compound],M -6.90849): 4.102 and 7.728 and 1.445 and -0.0221 and 3.388 and 8.399
agonist response (Fig 2f), individual replicate values (hPAR2 [5]; [compound],M -7.38561): 1.29 and 11.1269 and 3.313 and 3.3558 and 1.549 and 0.5881
agonist response (Fig 2f), individual replicate values (hPAR2 [5]; [compound],M -7.86273): -1.101 and 4.782 and 4.705 and 0.01875 and -2.103 and 4.2334
agonist response (Fig 2f), individual replicate values (hPAR2 [5]; [compound],M -8.33985): -5.551 and 2.218 and -0.6869 and -0.9848 and 0.2659 and 2.337
EC50 (hPAR2 [6]): 10 µM
agonist response (Fig 2e), individual replicate values (hPAR2 [6]; [compound],M -4.04576): 99.6308 and 91.4672 and 59.9255 and 93.3534 and 82.1422 and 106.727 and 95.3302 and 107.361
agonist response (Fig 2e), individual replicate values (hPAR2 [6]; [compound],M -4.52288): 97.6379 and 75.0545 and 42.279 and 78.3436 and 72.4641 and 77.8082 and 83.5277 and 91.4836
agonist response (Fig 2e), individual replicate values (hPAR2 [6]; [compound],M -5): 31.7126 and 38.7964 and 29.9003 and 52.5593 and 35.7079 and 56.5471 and 40.6895 and 78.4826
agonist response (Fig 2e), individual replicate values (hPAR2 [6]; [compound],M -5.47712): -6.206 and 24.6437 and 9.489 and 50.4555 and 3.733 and 21.3761 and 7.93 and 32.2657
agonist response (Fig 2e), individual replicate values (hPAR2 [6]; [compound],M -5.95424): -12.6824 and 18.9444 and 7.502 and 22.8061 and -1.381 and 9.052 and -3.256 and 12.5644
agonist response (Fig 2e), individual replicate values (hPAR2 [6]; [compound],M -6.43136): -23.75 and 16.3682 and -5.093 and 16.2671 and -4.436 and 12.7209 and -3.872 and 14.813
agonist response (Fig 2e), individual replicate values (hPAR2 [6]; [compound],M -6.90849): 15.5205 and 19.768 and 3.339 and 15.6565 and 2.966 and 12.1455 and -0.4138 and 11.0577
agonist response (Fig 2e), individual replicate values (hPAR2 [6]; [compound],M -7.38561): -7.931 and 10.0627 and -5.815 and 6.181 and -11.0844 and 9.039 and -0.4366 and 14.6989
agonist response (Fig 2e), individual replicate values (hPAR2 [6]; [compound],M -7.86273): -16.2411 and 11.2751 and -1.735 and 6.359 and -8.732 and 10.0488 and 1.766 and 13.489
agonist response (Fig 2e), individual replicate values (hPAR2 [6]; [compound],M -8.33985): -5.583 and 13.904 and -4.7322 and 9.728 and -8.195 and 13.5647 and -0.3681 and 7.371
Ki (hPAR2 [7]): 468 nM
remaining binding at […] (hPAR2 [7]; 2 h, read-out: specific binding of [^3H]-GB110, Fig 2b source data): 100% and 94.6%

The next lines start with the values.

inhibition of tryptase activity [2]: completely
Molecule: N=C(N)Nc1ccc(C(=O)Oc2ccc([N+](=O)[O-])cc2)cc1 [4-nitrophenyl-4-guanidinobenzoate, reference compound]

pKi [8]: 6.33 pKi
B1: SLIGKV-NH2 (peptide)
peptide: SLIGKV-NH2
notes: also called human tethered ligand peptide; source: synthetic peptide, custom synthesised by ThermoFisher Scientific
